# Data taken from US20200038412A1, “METHODS OF TREATING ALZHEIMER'S DISEASE USING AMINOSTEROL COMPOSITIONS” (Enterin, Inc., priority 2018, published 2020).
# Counter-ions that a name gives are not always drawn.
# Tests used:
# [1] = tested on: patients with PD and constipation; test: Phase 2 trial Stage 2: bowel function under daily oral dosing (escalation, fixed dose, wash-out); type: in vivo, human; details: patients with baseline ≥1 CSBM/week
# Description: Following successful screening, all subjects underwent a 14-day run-in period where the degree of constipation was assessed through a validated daily log (Zinsmeister et al. 2013) establishing baseline CSBMs/week. Subjects with an average of <3 CSBMs/week proceeded to dosing.
# In Stage 2, 34 patients were evaluated.
# The primary efficacy outcome variable was whether or not a subject was a “success” or “failure”. This is an endpoint based on subject diary entries for the “fixed dose” period prior to the endpoint assessment defined as average complete stool frequency increase by 1 or more over baseline, or 3 or more complete spontaneous stools/week. The subject was deemed a “success” if s/he met one or more of the criteria listed above, otherwise the subject was deemed a “failure”. The primary analysis was based on all subjects with a baseline assessment and an assessment at the end of the “fixed-dose” period and was a comparison of the proportion of successes with 0.10 (the null hypothesis corresponding to no treatment effect).
# [2] = Pharmacokinetics of orally administered squalamine (ENT-01) in Stage 1; type: in vivo, human; details: oral dosing
# Description: PK data were collected on the 10 patients enrolled in Stage 1 and 10 patients enrolled in Stage 2 to determine the extent of systemic absorption. In Stage 1, PK data were obtained at each visit, pre-medication, at 1, 2, 4, 8 and 24 hours (Table 10). In Stage 2, PK was measured on days 1 and 6 of the randomization period pre-medication, at 1, 2, 4 and 8 hours (Table 11).
# The mean Cmax, Tmax and T1/2 and AUC of the squalamine ion following squalamine (ENT-01) oral dosing for Stage 1 patients. The PK analyses are only approximate, as the lower limit of the validated concentration range was 10 ng/ml; most of the measured concentrations fell below that value. The mean Cmax, Tmax and T1/2 and AUC of the squalamine ion following squalamine (ENT-01) oral dosing for Stage 2 patients. The PK analyses are only approximate, as the lower limit of the validated concentration range was 0.5 ng/ml.
# mouse models of PD = details: cited from earlier work
# [3] = tested on: IPANs (intrinsic primary afferent neuron); details: perfusion through lumen of isolated bowel segment; cited from earlier work
# C. elegans model of PD = details: C. elegans model; cited from earlier work
# [4] = systemic administration, mice; into the duodenum through the biliary tract; cited from earlier work
# [5] = single and repeat intravenous administration, alone or in combination with other agents; cited from earlier work
SMILES,mean dose required for a bowel response (prokinetic dose) [1],systemic absorption [2],"gastro-intestinal motility (mouse models of PD; orally administered, mice with constipation due to overexpression of human αS (West et al))",gastrointestinal dysmotility (mouse models of PD; several mouse models of PD),effect on IPANs [3],muscle paralysis (C. elegans model of PD),clearance and excretion [4],well tolerated intravenous dose [5]
CC(C)[C@@H](CC[C@@H](C)[C@H]1CC[C@H]2[C@@H]3[C@H](O)C[C@H]4C[C@@H](NCCCNCCCCN)CC[C@]4(C)[C@H]3CC[C@]12C)OS(=O)(=O)O [squalamine],120 mg,not significantly absorbed into the systemic circulation,stimulates gastro-intestinal motility,reverse gastrointestinal dysmotility,excitation of IPANs,complete reversal of muscle paralysis,cleared by the liver and excreted as the intact molecule,–
CC(C)[C@@H](CC[C@@H](C)[C@H]1CC[C@H]2[C@@H]3[C@H](O)C[C@H]4C[C@@H](NCCCNCCCCN)CC[C@]4(C)[C@H]3CC[C@]12C)OS(=O)(=O)O [squalamine dilactate salt],–,–,–,–,–,–,–,at least 300 mg/m^2
